One block for each molecule: values may come before it.
Experiments:
dairy cows = conditions: cited from earlier work
rumen microorganisms = conditions: in vitro; cited from earlier work
bovine hepatocytes = bovine hepatocytes supplemented in vitro; cited from earlier work
delta-9-desaturase = assay: Milkfat substrate/product ratios (SFA : monounsaturated counterpart), proxy for delta-9-desaturase activity; assay type: in vivo, Friesian dairy cows; conditions: for C:18:C18:1 ratio in milkfat: baseline 0.49; for C:10:C10:1 ratio in milkfat: baseline 12.66; for C:14:C14:1 ratio in milkfat: baseline 14.93; for C:16:C16:1 ratio in milkfat: baseline 17.40
Description: (§1) Ethical approval was obtained from the University of Auckland Animal Ethics Committee to undertake an pilot supplementation study. The study involved supplementing the diets of four Friesian dairy cows with single daily dose of 40 and 160 of ethyl-eicospaentaenoic acid (>98% purity) for nine days. Cows were divided into a high-to-low dose (HTLD) group (n=2) with animals supplemented with 160 grams of EPA at day one with the dose decreasing by 15 grams each day to reach 40 grams at day nine and a low-to-high dose (LTHD) group (n=2) with animals supplemented with 40 grams on day one the dose increasing by 15 grams each day to reach 160 grams at day nine. Feeding and milk sampling was undertaken between 19 and 29 August 2004 at a dairy farm in West Aucldand under the supervision of a supervising veterinarian with experience in caring for the herd. Supplements were given by drenching gun once daily in the morning subsequent to milking. Prior to supplementation each day duplicate 50 ml samples of milk were collected from each animal and stored in 100 ml polyethylene containers in a temperature controlled minus 20 deg C. freezer within one hour of collection. Milk samples were thawed and fatty acids extracted and prepared for analysis. Milkfat was methylated by dissolving in hexane and reaction with 2 molar KOH methanol. 20 milligrams of fat dissolved in 2 mls in N-Hexane then 20 micro-litres of 2 molar KOH methanol was added left to stand for 3 seconds and vortexed vigorously for 30 seconds. The mixture was then allowed to stand for 6 minutes before being neutralized to methyl red with 2 molar HCl in water before being vortexed again and centrifuged (modified method from agilent website also reported in Terry Knight publications) Knight T. W., et al., New Zealand Journal Of Agricultural Research 47:3,: 287-297 SEP (2004). An aliquot of hexane was then taken and analysed by GCFID 6890 (Agilent Corp) with 105 meter 0.25 mm RTX2330 90% bis cyanoprofile column (Restek) and 0.25 micron film thickness. Fatty acids were identified by retention time in comparison with a 37-component mixture (Suplco). Peak areas were corrected for peak response using theoretical response factors (AOCS reference). Results were reported as area under curve.
Saturated Fatty Acids: A reduction in dietary amounts of certain saturated fatty acids (SFAs), including in particular the major milk fatty acid C16:0, a has been recommended by health experts (WHO Technical Report Series 916, WHO Geneva (2003)). Under normal circumstances about 50% of dietary C16:0 is taken up by the mammary gland. […] This decrease in milkfat C16:0 is unlikely to be explained by altered feeding behavior during the study given corresponding changes were not observed in other SFAs. In order to investigate the contribution of further metabolism of C16:0 in the mammary gland to palmitoleic acid (C16:1) we compared substrate/product ratios in milkfat for a number of SFAs and their monounsaturated fatty acid counterparts. These ratios are considered to be a proxy measure for the activity of the delta-9-desaturase activity enzyme. (see Table 1 below).

lactating dairy cows = assay: Pilot supplementation study in lactating dairy cows: milk fatty acids by GC; assay type: in vivo, Friesian dairy cows
Description: as §1
A permutation based method of statistical analysis was used to assess FA baseline composition with reference to a reference baseline derived from population of four thousand one hundred NZ Fresian dairy cows. Each fatty acid peak measured in the feeding trial was logged (log base 2), and had the day 0 (baseline) measurement subtracted to report a change from baseline at each time point. Significance of the changes in four-cow and two-cow means was tested by randomly selecting many groups of two or four cows from the herd of 4100 animal reference dataset and comparing the feeding trial results against the mean of logged measurements from the larger reference population. This produced baseline distributions for each group size which were centered at zero to match the baseline centered means from the animals in the feeding trial. Significance thresholds were then adjusted for the number of fatty acid peaks being investigated, and the number of measurements taken.

Compound: CC/C=C\C/C=C\C/C=C\CCCCCCCC(=O)O [ALA, alpha linolenic acid]
EPA in milkfat (dairy cows; duodenal infusion of 500 grams per day of ALA): no concomitant increase
level of ALA in milkfat (dairy cows; duodenal infusion of 500 grams per day): 14%

Compound: CC/C=C\C/C=C\C/C=C\C/C=C\C/C=C\CCCC(=O)O [EPA, 5,8,11,14,17,-eicosapentaenoic acid (20:5n-3)]
biohydrogenation of linoleic (LA C18:2) and alpha-linolenic (ALA C18:3) acid (rumen microorganisms): inhibition
oxidation of C16:0 (bovine hepatocytes): significant increase

C:10:C10:1 ratio, % of baseline (delta-9-desaturase; Day Eleven): 106.4 % of baseline
C:14:C14:1 ratio, % of baseline (delta-9-desaturase; Day Eleven): 110.6 % of baseline
C:16:C16:1 ratio, % of baseline (delta-9-desaturase; Day Eleven): 113.4 % of baseline
C:18:C18:1 ratio, % of baseline (delta-9-desaturase; Day Eleven): 98 % of baseline
C:18:C18:1 ratio in milkfat (delta-9-desaturase; Day Eleven): 0.48
C:10:C10:1 ratio in milkfat (delta-9-desaturase; Day Eleven): 13.46
C:14:C14:1 ratio in milkfat (delta-9-desaturase; Day Eleven): 16.51
C:16:C16:1 ratio in milkfat (delta-9-desaturase; Day Eleven): 19.67
C:10:C10:1 ratio, % of baseline (delta-9-desaturase; Day Five): 82.5 % of baseline
C:14:C14:1 ratio, % of baseline (delta-9-desaturase; Day Five): 83.3 % of baseline
C:16:C16:1 ratio, % of baseline (delta-9-desaturase; Day Five): 90.6 % of baseline
C:18:C18:1 ratio, % of baseline (delta-9-desaturase; Day Five): 65.3 % of baseline
C:10:C10:1 ratio in milkfat (delta-9-desaturase; Day Five, across both groups): 10.45
C:18:C18:1 ratio in milkfat (delta-9-desaturase; Day Five): 0.32
C:14:C14:1 ratio in milkfat (delta-9-desaturase; Day Five): 12.44
C:16:C16:1 ratio in milkfat (delta-9-desaturase; Day Five): 15.76
day by which milk DPA rose significantly from baseline (lactating dairy cows; HTLD group): three
day by which milk EPA rose significantly from baseline (lactating dairy cows; HTLD group): two
EPA as a percentage of total fatty acids in milk, peak (lactating dairy cows; HTLD group (160 to 40 g/day), peak at day five): 1.55 % TFA
DPA as a percentage of total fatty acids in milk, peak (lactating dairy cows; HTLD group, peak at day six): 0.41 % TFA
day by which milk DPA rose significantly from baseline (lactating dairy cows; LTHD group): seven
day by which milk EPA rose significantly from baseline (lactating dairy cows; LTHD group): five
EPA as a percentage of total fatty acids in milk, peak (lactating dairy cows; LTHD group (40 to 160 g/day), peak at day nine): 1.29 % TFA
DPA as a percentage of total fatty acids in milk, peak (lactating dairy cows; LTHD group, peak at day eleven): 0.38 % TFA
DHA in milk (lactating dairy cows; undetectable at baseline, throughout the study): remained unchanged
Compound: CC/C=C\C/C=C\C/C=C\C/C=C\C/C=C\CCCC(=O)OCC [ethyl-eicospaentaenoic acid]
milkfat stearic acid (C18:0) (lactating dairy cows; already significant by day three): dramatic reduction
maximum reduction of % TFA C16:0 in milk (lactating dairy cows; day nine, across both groups): 15.44 % of baseline levels
% TFA C16:0 in milk (lactating dairy cows; day nine, across both groups, baseline 36.78): 31.1 % TFA
CLA in milk, increase over baseline levels at maximum (lactating dairy cows; in vivo): 375%
CLA in milk, maximum level (lactating dairy cows; in vivo): 4.2 % of total fatty acids
CLA in milk, mean increase over baseline levels (lactating dairy cows; mean): 274%
